Data as given in patent US9695155B2, “Herbicidal substituted pyrimidinyloxy benzene compounds” (E. I. DU PONT DE NEMOURS AND COMPANY, priority 2013, dated 2017).

Experiments:
deadnettle = assay: Test D postemergence; assay type: in vivo, Lamium amplexicaule; conditions: Lamium amplexicaule, post-emergence, scale 0 to 100 (0 no effect, 100 complete control), read-out: Plant response rating, Deadnettle
Procedure, shortened: (§1)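 In a controlled growth environment, treated and control plants were held 7 to 21 days, then compared visually. Damage was scored 0–100, where 100 means complete control. Sprays contained surfactant in a non-phytotoxic solvent; post-applied plants were at the 1- to 4-leaf stage.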

wild buckwheat [1] = assay: Test D postemergence; assay type: in vivo, Polygonum convolvulus; conditions: Fallopia convolvulus, post-emergence, Postemergence, scale 0 to 100 (0 no effect, 100 complete control), read-out: Plant response rating, Buckwheat, Wild
Procedure, shortened: as §1

bluegrass [2] = assay: Test D preemergence; assay type: in vivo, Poa annua; conditions: Poa annua, pre-emergence, scale 0-100, read-out: Plant response rating, Bluegrass
Procedure, shortened: as §1

bluegrass [3] = assay: Test D postemergence; assay type: in vivo, Poa annua; conditions: Poa annua, post-emergence, Postemergence, scale 0 to 100 (0 no effect, 100 complete control), read-out: Plant response rating, Bluegrass
Procedure, shortened: as §1

oilseed rape = assay: Test D preemergence; assay type: in vivo, Brassica napus; conditions: Brassica napus, pre-emergence, scale 0-100, read-out: Plant response rating, Oilseed Rape
Procedure, shortened: as §1

wild mustard = assay: Test D postemergence; assay type: in vivo, Sinapis arvensis; conditions: Brassica, post-emergence, scale 0 to 100 (0 no effect, 100 complete control), read-out: Plant response rating, Mustard, Wild
Procedure, shortened: as §1

chamomile = assay: Test D preemergence; assay type: in vivo, Matricaria inodora; conditions: Tripleurospermum inodorum, pre-emergence, scale 0-100, read-out: Plant response rating, Chamomile
Procedure, shortened: as §1

pigweed = assay: Test D postemergence; assay type: in vivo, Amaranthus retroflexus; conditions: Amaranthus retroflexus, post-emergence, scale 0 to 100 (0 no effect, 100 complete control), read-out: Plant response rating, Pigweed
Procedure, shortened: as §1

Italian ryegrass = assay: Test D postemergence; assay type: in vivo, Lolium multiflorum; conditions: Lolium multiflorum, post-emergence, scale 0 to 100 (0 no effect, 100 complete control), read-out: Plant response rating, Ryegrass, Italian
Procedure, shortened: as §1

field bindweed = assay: Test E postemergence; assay type: in vivo, Convolvulus arvensis; conditions: Convolvulus arvensis, post-emergence, read-out: Plant response rating, Field Bindweed
Procedure, shortened: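 Test chemicals formulated in a non-phytotoxic solvent mixture containing a surfactant were applied preemergence to seeds in silt loam soil or postemergence to plants at the 1- to 4-leaf stage in potting mix. After 14 to 21 days in a greenhouse, injury was visually rated against controls on a 0-100 scale (0 = no effect, 100 = complete control).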

bromegrass, downy = assay: Test D postemergence; assay type: in vivo, Bromus tectorum; conditions: Bromus tectorum, post-emergence, Postemergence, scale 0 to 100 (0 no effect, 100 complete control), read-out: Plant response rating, Bromegrass, Downy
Procedure, shortened: as §1

wild buckwheat [4] = assay: Test D preemergence; assay type: in vivo, Polygonum convolvulus; conditions: Fallopia convolvulus, pre-emergence, scale 0-100, read-out: Plant response rating, Buckwheat, Wild
Procedure, shortened: as §1

speedwell = assay: Test D preemergence; assay type: in vivo, Veronica persica; conditions: Veronica persica, pre-emergence
Procedure, shortened: as §1

N#Cc1cccc(Oc2ncc(Cl)cn2)c1-n1cc(C(F)(F)F)cn1 [Compound 58, 3-[(5-chloro-2-pyrimidinyl)oxy]-2-[4-(trifluoromethyl)-1H-pyrazol-1-yl]benzonitrile]
pest or weed control at 31 g/ha (deadnettle; 31 g ai/ha): 80%
pest or weed control at 62 g/ha (deadnettle; 62 g ai/ha): 100%
pest or weed control at 125 g/ha (deadnettle; 125 g ai/ha): 100%
pest or weed control at 250 g/ha (deadnettle; 250 g ai/ha): 100%
pest or weed control at 31 g/ha (wild buckwheat [1]; 31 g ai/ha): 90%
pest or weed control at 62 g/ha (wild buckwheat [1]; 62 g ai/ha): 100%
pest or weed control at 125 g/ha (wild buckwheat [1]; 125 g ai/ha): 100%
pest or weed control at 250 g/ha (wild buckwheat [1]; 250 g ai/ha): 100%
pest or weed control at 31 g/ha (bluegrass [2]; 31 g ai/ha): 10%
pest or weed control at 62 g/ha (bluegrass [2]; 62 g ai/ha): 50%
pest or weed control at 125 g/ha (bluegrass [2]; 125 g ai/ha): 100%
pest or weed control at 250 g/ha (bluegrass [2]; 250 g ai/ha): 100%
pest or weed control at 31 g/ha (bluegrass [3]; 31 g ai/ha): 25%
pest or weed control at 62 g/ha (bluegrass [3]; 62 g ai/ha): 35%
pest or weed control at 125 g/ha (bluegrass [3]; 125 g ai/ha): 45%
pest or weed control at 250 g/ha (bluegrass [3]; 250 g ai/ha): 55%
plant injury at 31 g/ha (oilseed rape; 31 g ai/ha): 100%
plant injury at 62 g/ha (oilseed rape; 62 g ai/ha): 100%
plant injury at 125 g/ha (oilseed rape; 125 g ai/ha): 100%
plant injury at 250 g/ha (oilseed rape; 250 g ai/ha): 100%
pest or weed control at 31 g/ha (wild mustard; 31 g ai/ha): 85%
pest or weed control at 62 g/ha (wild mustard; 62 g ai/ha): 100%
pest or weed control at 125 g/ha (wild mustard; 125 g ai/ha): 100%
pest or weed control at 250 g/ha (wild mustard; 250 g ai/ha): 100%
pest or weed control at 31 g/ha (chamomile; 31 g ai/ha): 30%
pest or weed control at 62 g/ha (chamomile; 62 g ai/ha): 50%
pest or weed control at 125 g/ha (chamomile; 125 g ai/ha): 80%
pest or weed control at 250 g/ha (chamomile; 250 g ai/ha): 100%
pest or weed control at 31 g/ha (pigweed; 31 g ai/ha): 90%
pest or weed control at 62 g/ha (pigweed; 62 g ai/ha): 100%
pest or weed control at 125 g/ha (pigweed; 125 g ai/ha): 100%
pest or weed control at 250 g/ha (pigweed; 250 g ai/ha): 100%
pest or weed control at 31 g/ha (Italian ryegrass; 31 g ai/ha): 10%
pest or weed control at 62 g/ha (Italian ryegrass; 62 g ai/ha): 20%
pest or weed control at 125 g/ha (Italian ryegrass; 125 g ai/ha): 50%
pest or weed control at 250 g/ha (Italian ryegrass; 250 g ai/ha): 65%
pest or weed control at 31 g/ha (field bindweed; Postemergence, 31 g ai/ha, scale 0 to 100): 60%
pest or weed control at 62 g/ha (field bindweed; Postemergence, 62 g ai/ha, scale 0 to 100): 70%
pest or weed control at 125 g/ha (field bindweed; Postemergence, 125 g ai/ha, scale 0 to 100): 70%
pest or weed control at 250 g/ha (field bindweed; Postemergence, 250 g ai/ha, scale 0 to 100): 80%
pest or weed control at 16 g/ha (field bindweed; postemergence, 16 g ai/ha, scale 0 to 100, 0 no effect, 100 complete control): 50%
pest or weed control at 31 g/ha (bromegrass, downy; 31 g ai/ha): 25%
pest or weed control at 62 g/ha (bromegrass, downy; 62 g ai/ha): 30%
pest or weed control at 125 g/ha (bromegrass, downy; 125 g ai/ha): 35%
pest or weed control at 250 g/ha (bromegrass, downy; 250 g ai/ha): 35%
pest or weed control at 31 g/ha (wild buckwheat [4]; 31 g ai/ha): 100%
pest or weed control at 62 g/ha (wild buckwheat [4]; 62 g ai/ha): 100%
pest or weed control at 125 g/ha (wild buckwheat [4]; 125 g ai/ha): 100%
pest or weed control at 250 g/ha (wild buckwheat [4]; 250 g ai/ha): 100%
pest or weed control at 31 g/ha (speedwell; 31 g ai/ha, scale 0 (no effect) to 100 (complete control), read-out: Plant response rating, Speedwell): 100%
pest or weed control at 62 g/ha (speedwell; 62 g ai/ha, scale 0-100, read-out: Plant response rating, Speedwell): 100%
pest or weed control at 125 g/ha (speedwell; 125 g ai/ha, scale 0-100, read-out: Plant response rating, Speedwell): 100%
pest or weed control at 250 g/ha (speedwell; 250 g ai/ha, scale 0-100, read-out: Plant response rating, Speedwell): 100%
